Legend:
LL-86 cells = assay: Cytotoxicity assay (calcein AM cell viability), LL-86; assay type: cell-based; conditions: 50 μM, approximately 24 hours
Source text: (§1) This procedure is used to assess the effects compounds have on various cell lines with respect to cell viability. Cell viability is quantified using calcein AM and measuring its conversion to a fluorescent product (calcein) with a fluorimeter.
(§2) The principle of this assay is based on the presence of ubiquitous intracellular esterase activity found in live cells. By enzymatic reaction of esterase, non-fluorescent cell-permeant calcein AM is converted to the intensely fluorescent calcein. The polyanionic dye calcein is retained within live cells, producing a green fluorescence in live cells. […]
(§3) Cells were collected from tissue culture flasks and trypsinized, centrifuged, resuspended and counted. […]
(§4) The calcein AM solution is prepared by added 50 μg of calcein AM crystal (m.w.=994.87 g/mol, Molecular Probes, Eugene, Oreg.) and nnhydrous DMSO (Sigma Aldrich) to make 1 mM stock and diluting stock to 2× the final desired concentration in 1×DPBS just before the assay. […] Fluorescence data was read and recorded (Fluoroskan Ascent® FL fluorimeter (excitation˜485 nm, emission˜527 nm)).
(§5) The values for replicates (usually six) are averaged and % inhibition is calculated as follows: % inhibition=100−[(AVG treatment−AVG positive control)/(AVG negative control−AVG positive control)*100]

HUVEC cells [1] = assay: Cytotoxicity assay (calcein AM cell viability), HUVEC; assay type: cell-based; conditions: 50 μM, approximately 24 hours
Source text: as §1, §2, §3, §4, §5

PC3 cells = assay: Cell proliferation (3H-thymidine incorporation), PC3; assay type: cell-based; conditions: Homo sapiens, PC-3, 24 hours, read-out: in vitro inhibition of cell proliferation
Source text: (§6) This procedure (Jelinkova, R. B. et al., “Antiproliferative effect of a lectin- and anti-Thy-1.2 antibody-targeted HPMA copolymer-bound doxorubicin on primary and metastatic human colourectal carcinoma and on human colourectal carcinoma transfected with the mouse Thy-1.2 gene”, Bioconjug. Chem. (2000), Vol. 11, No. 5, pp. 664-73) is used to assess the effect compounds have on various cell lines with respect to proliferation. The rate of anchorage-independent growth of various tumour cells is quantified by measuring the amount of free isotopic thymidine that has been incorporated into the cells over a period of time. The effect of any compound to inhibit the proliferation of various tumour cells could be used as an indication of its ability to prevent disease progression in cancer.
(§7) Cultured tumour cells are harvested cells as per normal procedures: i.e. trypsinize, centrifuge and count cells. […]
(§8) After incubation, plates are observed under the microscope for obvious cell death, abnormal cell shape, crystal formation of the compound, etc. […] Finally, 100 μL of scintillation fluid is added to each well and the plates are counted in a Wallac™ 1450 Microbeta™ counter according to user manual instructions.
(§9) The amount of inhibition is determined by the following formula: % inhibition=100−[(AVG treatment−AVG positive control)/[…]]

H460 cells = assay: Cell proliferation (3H-thymidine incorporation), H460; assay type: cell-based; conditions: Homo sapiens, NCI-H460, 24 hours, read-out: in vitro inhibition of cell proliferation
Source text: as §6, §7, §8, §9

SGK2α = molecular target: T1, SGK2α (Homo sapiens, UniProt Q9HBY8); assay: SGK2α in vitro kinase assay; assay type: biochemical; conditions: recombinant human GST-SGK2α, [γ-32P]-ATP, 15 minutes at ambient temperature
T1 construct: made in house; host or cells: baculovirus; Sf9 (virus generation) and High Five insect cells (expression)
T1 sequence (Q9HBY8 1-367): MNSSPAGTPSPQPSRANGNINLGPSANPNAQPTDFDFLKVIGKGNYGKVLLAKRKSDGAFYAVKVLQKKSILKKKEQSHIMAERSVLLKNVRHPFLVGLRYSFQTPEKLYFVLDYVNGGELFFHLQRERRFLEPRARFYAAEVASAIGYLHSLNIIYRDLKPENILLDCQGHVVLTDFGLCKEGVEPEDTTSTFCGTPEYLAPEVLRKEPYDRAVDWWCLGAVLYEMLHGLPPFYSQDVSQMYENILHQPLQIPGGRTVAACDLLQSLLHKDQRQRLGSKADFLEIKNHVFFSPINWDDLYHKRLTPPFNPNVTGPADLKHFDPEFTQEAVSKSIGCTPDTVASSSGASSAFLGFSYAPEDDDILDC
Source text: SGK2α cDNA was cloned from human brain cDNA library by the polymerase chain reaction (PCR) technique and subsequently inserted directly into pPCR-2.1 T/A cloning vector (Strategene). After DNA sequencing, the confirmed wild-type human SGK2α cDNA was subcloned into baculovirus expression vector pAcG2T (BD PharMingen) for recombinant protein expression in insect cells. Expression of human SGK2α as a fusion protein required that the cDNA be ligated into the polyclonal site situated in frame and downstream of the glutathione-S-transferase gene of the baculovirus transfer vector pAcG2T. The 1104 base pair SGK2α coding sequence was excised from the pPCR-2.1 T/A vector using the Bam HI and Eco RI restriction sites generated the 5′ and 3′ of the coding sequence respectively by PCR amplification. This DNA fragment was directionally subcloned in-frame into the Bam HI and Eco RI polyclonal sites of the pAcG2T vector. Positive recombinant clones of SGK2α in the pAcG2T vector were determined by restriction enzyme analysis with Bam HI and Eco RI restriction enzymes.
Active SGK2α enzyme was expressed using the baculovirus expression vector system in a two-step process. […] A complete quantitative and qualitative analysis of the protein was monitored using Coomassie blue staining and Western blot analysis using anti-GST specific antibody (Kinetek). […]

HS27 cells = assay: Cytotoxicity assay (calcein AM cell viability), HS27; assay type: cell-based; conditions: 50 μM, approximately 24 hours
Source text: as §1, §2, §3, §4, §5

HUVEC cells [2] = assay: Cell proliferation (3H-thymidine incorporation), HUVEC; assay type: cell-based; conditions: Homo sapiens, 24 hours, read-out: in vitro inhibition of cell proliferation
Source text: as §6, §7, §8, §9

## CCc1c2cc(OC)c(OC)cc2cc(=O)n1Cc1ccccc1 [2-Benzyl-1-ethyl-6,7-dimethoxy-2H-isoquinolin-3-one]
LL-86 cells
  in vitro cytotoxicity: 0%
HUVEC cells [1]
  in vitro cytotoxicity: 4%
PC3 cells
  inhibition at 50 µM: 67%
H460 cells
  inhibition at 50 µM: 27%
SGK2α
  IC50: 970 nM
HS27 cells
  in vitro cytotoxicity: 0%
HUVEC cells [2]
  inhibition at 50 µM: 42%
